Assay [1] has as its system unidentified influenza virus. As to the kind of experiment: Potency to inhibit influenza virus (X-31) relative to alpha-C-allyl sialic acid. The class given is functional.
Assay [2] relates to unidentified influenza virus. In words: The compound was evaluated for the inhibition of influenza virus (X-31). The class given is functional, organism-based.

This note sets out measurements from ChEMBL document CHEMBL1126096, “Carbohydrate materials bearing neuraminidase-resistant C-glycosides of sialic acid strongly inhibit the in vitro infectivity of influenza virus” (J Med Chem, 1992).

As a reminder, the IC50 is the point on the concentration scale where inhibition reaches its midpoint. High values mean lower potency, low ones higher potency. With `CO[C@]1(C(=O)O)C[C@H](O)[C@@H](NC(C)=O)[C@H]([C@@H](O)[C@H](O)CO)O1`, in assay [1], the Relative potency was 2.5. In addition, half-maximal inhibition in assay [2] (IC50) required 4 mM.

`C=CC[C@@]1(C(=O)O)C[C@H](O)[C@@H](NC(C)=O)[C@H](C(O)C(O)CO)O1` (stereo partly specified): in assay [1], the Relative potency is reported as 1. In assay [2], the concentration for half-maximal inhibition (IC50) worked out at 10 mM.

With `C=CC[C@]1(C(=O)O)C[C@H](O)[C@@H](NC(C)=O)[C@H](C(O)C(O)CO)O1` (stereo partly specified), the Relative potency in assay [1] is reported as less than 0.02. Further, the 50% inhibitory concentration (IC50) in assay [2] is greater than 50 mM.
